ChEMBL document CHEMBL1156703, “Antitumor studies -- part 2: structure-activity relationship study for flavin analogs including investigations on their in vitro antitumor assay and docking simulation into protein tyrosine kinase” (Eur J Med Chem, 2008)
Values after ≈ are worked out from the molar mass of the structure shown.

Experiments:
Protein kinase C (PKC) = assay: Inhibition of rat brain protein kinase C
KB = assay: Growth inhibition of human KB cells by MTT assay; type: functional, cell-based

Row | IC50 (Protein kinase C (PKC)) [µg/mL] | IC50 (KB) [µg/mL] | Structure (SMILES)
1 | > 100 | > 10 | O=c1nc2n(-c3ccccc3)c3ccccc3cc-2c(=O)[nH]1
2 | > 100 | > 10 | CCCCCCCCCCCCn1c2nc(=O)[nH]c(=O)c-2cc2ccc(Cl)cc21
3 | 46.6 (≈ 183 µM) | > 10 | CCn1c2nc(=O)n(C)c(=O)c-2cc2ccccc21
4 | > 100 | > 10 | Cn1c(=O)nc2n(-c3ccccc3)c3ccccc3cc-2c1=O
5 | 12.9 (≈ 42.8 µM) | – | CCn1c2nc(-c3ccccc3)nc(=O)c-2cc2ccccc21
6 | 60.1 (≈ 198 µM) | > 10 | Cn1c2nc(=O)n(-c3ccccc3)c(=O)c-2cc2ccccc21
7 | 53.3 (≈ 168 µM) | > 10 | CCn1c2nc(=O)n(-c3ccccc3)c(=O)c-2cc2ccccc21
8 | > 100 | > 10 | O=c1nc2n(-c3ccccc3)c3ccccc3cc-2c(=O)n1-c1ccccc1
9 | – | 2.53 (≈ 7.68 µM) | CCCCn1c2nc(-c3ccccc3)nc(=O)c-2cc2ccccc21
10 | 38.4 (≈ 132 µM) | – | C[C@H]1CNCCN1S(=O)(=O)c1cccc2cnccc12
11 | 10 (≈ 39.2 µM) | > 10 | CCn1c2nc(=O)[nH]c(=O)c-2cc2cc(C)ccc21
12 | 14.8 (≈ 65.4 µM) | – | Cn1c2nc(N)nc(=O)c-2cc2ccccc21
13 | 89.7 (≈ 333 µM) | > 10 | CCCCn1c2nc(=O)[nH]c(=O)c-2cc2ccccc21
14 | 3.54 (≈ 12.3 µM) | – | Cn1c2nc(-c3ccccc3)nc(=O)c-2cc2ccccc21
15 | – | 0.14 (≈ 0.576 µM) | Nc1ccn([C@@H]2O[C@H](CO)[C@@H](O)[C@@H]2O)c(=O)n1 [CYTARABINE]
16 | 26.4 (≈ 83.2 µM) | > 10 | Cc1ccc2c(c1)cc1c(=O)n(C)c(=O)nc-1n2-c1ccccc1
17 | 46 (≈ 171 µM) | > 10 | CCCn1c2nc(=O)n(C)c(=O)c-2cc2ccccc21
18 | 23.9 (≈ 84.4 µM) | > 10 | CCCCn1c2nc(=O)n(C)c(=O)c-2cc2ccccc21
19 | 4.55 (≈ 15.1 µM) | 1.17 (≈ 3.88 µM) | Cc1ccc2c(c1)cc1c(=O)nc(-c3ccccc3)nc-1n2C
